Source: patent US11639337B2, “Bicyclic heteroaryl derivatives and preparation and uses thereof” (XWPHARMA LTD., priority 2017, dated 2023)
pIC50: −log10 of the molar value.

Columns and labels:
metastatic melanoma = details: Phase 2, patients with metastatic melanoma; cited from earlier work
[1] = target: T1, human Nav1.2 voltage-gated sodium channels (Homo sapiens, UniProt Q99250); assay: Manual whole-cell patch-clamp, inhibition of hNav1.2 sodium current; type: cell-based; details: HEK293 cells stably transfected with SCN2A, holding potential -80 mV, peak current
T1 construct: expressed in transfected cells; host or cells: HEK293
Protocol: (§1) The potential inhibitory effect of Compound I-XXII on human voltage-gated sodium channels (hNav1.2/1.7) was evaluated by manual patch-clamp system according to the procedures as described. HEK293 cell line stably transfected with SCN2A/SCN9A gene was employed in this study and Tetrodotoxin (TTX) was used as a positive control to ensure the good quality of the assay.
(§2) General procedure: HEK 293 cells were stably transfected with human Nav1.2 or Nav1.7 voltage-gated sodium channels. The cells are routinely maintained in culture medium containing in 90% DMEM, 10% FBS, 100 U/mL Penicillin-Streptomycin and […] of G418. Before the assay, the cells were resuspended and plated onto the coverslips at 5×10^5 cells/per 6 cm cell culture dish for use. The voltage-gated Nav1.2 and Nav1.7 channel current was recorded at room temperature (25° C.) from randomly selected transfected cells under whole-cell patch clamp systems equipped with EPC10 USB (HEKA) or Multiclamp 700B amplifier (Molecular Devices), while electrical data was digitalized by Digidata1440A with sampling frequency over 10 kHz and acquired with Patchmaster or pClamp10 respectively. The glass electrode with resistance ranged from 2 to 3.5 MW was prepared by micropipette puller P-97 (Sutter Instrument) and filled with internal solutions (in mM): 140 KCl, 2 MgCl2, 10 EGTA, 10 HEPES and 5 MgATP (pH adjusted to 7.35 with KOH), while cells were bathed in extracellular solutions (in mM) 132 NaCl, 4 KCl, 3 CaCl2, 0.5 MgCl2, 11.1 glucose, and 10 HEPES (pH adjusted to 7.35 with NaOH). After rupture, the series membrane resistance was at least 50% compensated and capacitance was also compensated as well. All cells were voltage-clamped to a holding potential of −80 mV unless otherwise specified. The inward sodium currents were elicited by a 20-ms voltage pulse to 10 mV from −80 mV applied every 15 s. The sodium current was initially recorded for at least 120 seconds to assess the current stability, and only cells with recording parameters over acceptance criteria was finally used to assess the dose response to the local perfusion of Compound I-XXII. The blank vehicle was firstly applied to the patched cells in order to establish the recording baseline. After at least 5 min when the elicited sodium currents reaches stabilization, the test compound was perfused into recording chamber accumulatively from low to high concentrations. The positive control article, Tetrodotoxin (TTX), was also used to challenge same batch of cell in order to ensure the good performance of the recording system. All experiments were performed in triplicate for IC50 determination. Upon data acquisition, the PatchMaster or pClamfit software were used to extract the peak current from the original raw data, while the peak current inhibition was defined by equation as shown below.
(§3) The dose response curve for the test compound was plotted with % inhibition against the dose concentration of the test compound using Graphpad Prism 5.0 software, and then the data was fit to a sigmoid dose-response curve with variable slope for IC50 determination.

[2] = target: T2, human Nav1.7 voltage-gated sodium channels (Homo sapiens, UniProt Q15858); assay: Manual whole-cell patch-clamp, inhibition of hNav1.7 sodium current; type: cell-based; details: HEK293 cells stably transfected with SCN9A, holding potential -80 mV, peak current
T2 construct: expressed in transfected cells; host or cells: HEK293
Protocol: as §1, §2, §3

[3] = system: SNL (Spinal Nerve Ligation) rats; assay: Mechanical allodynia in SNL (spinal nerve ligation) rats, von Frey; type: in vivo, Sprague-Dawley rats; details: 5 mg/kg i.p., 0.5 h time point post dose
Protocol: SNL model is a commonly used model to measure surgical induced neuropathic pain. The goal of the study was to evaluate the efficacy of Compound I to attenuate mechanical allodynia in SNL model in Sprague-Dawley rats.
In this study, SNL model was created following typical procedure and the approved drug Tapentadol (XW-TAP) was used as reference compound. Gabapentin was applied as positive control for model validation.
1) 5 mg/kg Compound I: Added 17.13 mg Compound I to 16.96 mL 0.5% methylcellulose in normal saline solution, vortexed to fully mix.
1) Rats were placed individually in a plastic enclosure with a mesh bottom which allowed full access to the paws. Rats were acclimated for 15 min prior to testing.
2) After acclimation, the mid-plantar hind paw was touched with one of a series of eight von Frey hairs with logarithmically incremental stiffness as follows: 3.61 (0.4 g), 3.84 (0.6 g), 4.08 (1 g), 4.31 (2 g), 4.56 (4 g), 4.74 (6 g), 4.93 (8 g) and 5.18 (15 g). The von Frey hairs were presented perpendicularly to the plantar surface with sufficient force to cause slight buckling against the paw and held for approximately 6-8 s. Stimulation was presented at intervals of 5 seconds, allowing for apparent resolution of any behavioral responses to previous stimulus. A positive response was noted if the paw was sharply withdrawn. […]

[4] = Rat pharmacokinetic study; type: in vivo, male Sprague-Dawley rats; details: male, Sprague-Dawley, plasma, PO, single dose 5.8 mg/kg
Protocol: For rat pharmacokinetic studies, male Sprague-Dawley rats were housed individually and fasted overnight before use. The animal dosing experiments were carried out in accordance to the National Institutes of Health Guide to the Care and Use of Laboratory Animals and the Animal Welfare Act. For Compound I, a single dose of 5.8 mg/kg was administered to each rat in two groups (n=5/group) via intravenous (IV) and oral (PO) administration, respectively. The vehicle used for IV administration was 10% (v/v) CremophorEL in 90% PBS. The vehicle used for PO administration was 0.5% (w/v) methylcellulose in normal saline solution. Blood samples were collected at specified time-points (pre-dose, 30 minutes, 1 hour, 2 hours, 4 hours, 7 hours, 8 hours, 12 hours, 24 hours) following administration to individual rats within IV and PO group. Blood samples were clotted on ice immediately, plasma samples were then isolated by centrifugation and stored frozen (−80° C.) until further analysis. The concentrations of Compound I were individually determined by LC/MS/MS assay. Various pharmacokinetic parameters were calculated using Phoenix™ WinNonlin® software. To quantify the bioconversion efficiency of the Compound I in the circulation system, the bioavailability of Compound I after PO administration was calculated.

T1 sequence (Q99250 whole entry): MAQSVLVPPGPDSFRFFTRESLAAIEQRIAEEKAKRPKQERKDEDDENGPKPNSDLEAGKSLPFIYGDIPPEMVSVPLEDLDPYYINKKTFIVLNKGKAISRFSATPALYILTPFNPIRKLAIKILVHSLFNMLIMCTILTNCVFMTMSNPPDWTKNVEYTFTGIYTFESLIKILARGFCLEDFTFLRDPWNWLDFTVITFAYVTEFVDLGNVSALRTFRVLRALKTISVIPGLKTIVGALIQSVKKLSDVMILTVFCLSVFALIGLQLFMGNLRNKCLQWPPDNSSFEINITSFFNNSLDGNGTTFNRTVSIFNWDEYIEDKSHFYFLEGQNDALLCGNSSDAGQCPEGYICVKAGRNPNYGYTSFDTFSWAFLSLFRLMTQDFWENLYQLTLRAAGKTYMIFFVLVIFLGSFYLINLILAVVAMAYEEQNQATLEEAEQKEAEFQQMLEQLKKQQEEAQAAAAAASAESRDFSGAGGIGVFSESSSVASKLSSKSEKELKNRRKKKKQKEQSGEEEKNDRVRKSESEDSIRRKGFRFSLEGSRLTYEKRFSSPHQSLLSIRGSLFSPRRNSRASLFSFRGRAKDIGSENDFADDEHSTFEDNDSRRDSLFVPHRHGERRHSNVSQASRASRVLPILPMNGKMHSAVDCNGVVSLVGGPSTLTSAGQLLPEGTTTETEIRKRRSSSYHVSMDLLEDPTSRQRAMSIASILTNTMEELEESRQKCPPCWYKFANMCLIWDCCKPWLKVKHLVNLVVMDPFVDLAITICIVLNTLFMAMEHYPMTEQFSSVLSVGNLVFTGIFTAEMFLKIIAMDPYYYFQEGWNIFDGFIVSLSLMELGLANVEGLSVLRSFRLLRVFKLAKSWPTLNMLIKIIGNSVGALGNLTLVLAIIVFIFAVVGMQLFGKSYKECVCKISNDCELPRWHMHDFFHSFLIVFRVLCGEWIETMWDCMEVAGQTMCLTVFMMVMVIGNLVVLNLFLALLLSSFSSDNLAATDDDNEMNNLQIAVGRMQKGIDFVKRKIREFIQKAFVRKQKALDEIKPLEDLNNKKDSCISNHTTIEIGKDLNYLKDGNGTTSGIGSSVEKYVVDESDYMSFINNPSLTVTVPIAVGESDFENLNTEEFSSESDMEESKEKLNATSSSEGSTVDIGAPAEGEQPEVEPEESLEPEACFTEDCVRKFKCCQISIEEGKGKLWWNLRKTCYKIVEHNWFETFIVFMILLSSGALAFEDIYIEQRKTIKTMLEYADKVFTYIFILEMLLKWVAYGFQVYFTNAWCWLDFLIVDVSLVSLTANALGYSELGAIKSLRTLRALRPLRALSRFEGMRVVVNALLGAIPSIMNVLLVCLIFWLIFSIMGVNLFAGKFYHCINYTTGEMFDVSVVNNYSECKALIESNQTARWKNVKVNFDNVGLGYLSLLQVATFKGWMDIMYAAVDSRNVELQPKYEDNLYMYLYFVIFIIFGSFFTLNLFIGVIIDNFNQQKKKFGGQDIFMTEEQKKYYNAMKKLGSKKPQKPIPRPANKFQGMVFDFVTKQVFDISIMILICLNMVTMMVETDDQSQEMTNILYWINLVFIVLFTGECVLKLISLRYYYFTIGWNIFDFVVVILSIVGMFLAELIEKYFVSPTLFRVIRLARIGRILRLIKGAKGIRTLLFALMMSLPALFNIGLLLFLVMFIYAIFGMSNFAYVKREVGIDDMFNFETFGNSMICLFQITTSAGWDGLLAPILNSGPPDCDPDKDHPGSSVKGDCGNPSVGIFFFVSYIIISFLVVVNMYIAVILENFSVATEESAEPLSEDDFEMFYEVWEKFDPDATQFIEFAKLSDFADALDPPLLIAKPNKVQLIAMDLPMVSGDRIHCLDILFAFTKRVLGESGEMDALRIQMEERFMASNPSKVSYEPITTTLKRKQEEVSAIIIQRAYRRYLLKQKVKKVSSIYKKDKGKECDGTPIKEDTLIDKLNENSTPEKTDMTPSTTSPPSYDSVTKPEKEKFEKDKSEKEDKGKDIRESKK
T2 sequence (Q15858 whole entry): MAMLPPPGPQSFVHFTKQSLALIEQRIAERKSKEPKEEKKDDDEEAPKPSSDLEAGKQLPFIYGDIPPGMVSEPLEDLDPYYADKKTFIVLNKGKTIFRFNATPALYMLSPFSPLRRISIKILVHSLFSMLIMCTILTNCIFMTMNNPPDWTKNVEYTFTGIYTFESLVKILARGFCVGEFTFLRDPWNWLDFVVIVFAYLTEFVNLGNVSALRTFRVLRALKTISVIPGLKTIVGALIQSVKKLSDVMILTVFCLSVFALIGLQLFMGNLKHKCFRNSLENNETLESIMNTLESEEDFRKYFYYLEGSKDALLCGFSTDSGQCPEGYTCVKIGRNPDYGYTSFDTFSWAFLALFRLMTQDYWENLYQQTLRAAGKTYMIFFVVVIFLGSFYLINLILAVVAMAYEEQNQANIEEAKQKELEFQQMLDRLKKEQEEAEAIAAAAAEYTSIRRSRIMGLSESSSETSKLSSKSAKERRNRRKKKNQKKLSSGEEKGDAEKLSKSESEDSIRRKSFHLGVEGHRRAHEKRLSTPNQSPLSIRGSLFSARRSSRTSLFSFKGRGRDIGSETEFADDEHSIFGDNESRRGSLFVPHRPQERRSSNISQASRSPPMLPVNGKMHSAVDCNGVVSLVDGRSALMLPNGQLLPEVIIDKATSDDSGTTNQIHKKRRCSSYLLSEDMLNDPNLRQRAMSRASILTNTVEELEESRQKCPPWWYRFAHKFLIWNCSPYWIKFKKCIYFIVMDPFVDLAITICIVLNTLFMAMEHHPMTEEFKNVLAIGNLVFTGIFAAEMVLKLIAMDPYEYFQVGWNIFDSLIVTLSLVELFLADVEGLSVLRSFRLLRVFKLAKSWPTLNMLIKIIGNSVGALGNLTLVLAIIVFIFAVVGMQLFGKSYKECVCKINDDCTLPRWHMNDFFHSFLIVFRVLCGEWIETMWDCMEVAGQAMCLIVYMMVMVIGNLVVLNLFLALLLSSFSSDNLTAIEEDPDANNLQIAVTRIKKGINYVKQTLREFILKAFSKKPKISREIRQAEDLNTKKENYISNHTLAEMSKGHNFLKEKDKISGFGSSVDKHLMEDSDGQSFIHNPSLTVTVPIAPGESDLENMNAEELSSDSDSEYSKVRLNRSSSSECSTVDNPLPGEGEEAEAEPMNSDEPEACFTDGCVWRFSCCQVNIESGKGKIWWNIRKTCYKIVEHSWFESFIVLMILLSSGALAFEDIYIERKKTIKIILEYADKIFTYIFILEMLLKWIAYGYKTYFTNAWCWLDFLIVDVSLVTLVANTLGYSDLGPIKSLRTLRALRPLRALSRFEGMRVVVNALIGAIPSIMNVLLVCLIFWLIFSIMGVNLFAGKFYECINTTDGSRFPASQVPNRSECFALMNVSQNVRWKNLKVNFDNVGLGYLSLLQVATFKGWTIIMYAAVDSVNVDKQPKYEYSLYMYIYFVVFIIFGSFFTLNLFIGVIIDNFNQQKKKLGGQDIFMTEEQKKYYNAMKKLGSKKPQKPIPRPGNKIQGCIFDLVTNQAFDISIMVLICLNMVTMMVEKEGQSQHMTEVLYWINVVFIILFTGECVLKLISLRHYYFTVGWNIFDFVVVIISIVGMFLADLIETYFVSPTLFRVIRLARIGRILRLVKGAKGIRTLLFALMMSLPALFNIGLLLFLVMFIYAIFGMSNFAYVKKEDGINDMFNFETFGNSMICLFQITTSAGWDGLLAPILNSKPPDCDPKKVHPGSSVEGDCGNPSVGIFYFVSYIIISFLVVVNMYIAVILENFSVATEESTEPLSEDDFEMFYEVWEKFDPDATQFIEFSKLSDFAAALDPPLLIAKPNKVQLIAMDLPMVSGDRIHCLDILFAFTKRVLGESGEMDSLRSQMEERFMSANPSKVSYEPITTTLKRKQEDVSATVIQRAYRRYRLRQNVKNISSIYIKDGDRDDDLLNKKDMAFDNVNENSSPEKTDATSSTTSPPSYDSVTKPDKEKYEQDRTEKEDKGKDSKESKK

pIC50 [1]	pIC50 [2]	SMILES	other results
–	–	Nc1nc2ccc(OC(F)(F)F)cc2s1 [Riluzole]	RECIST grade (metastatic melanoma): no overall improvement of RECIST grade
4.81	5.93	Nc1nc2ccc(SC(F)(F)F)cc2[se]1 [Compound IX, 6-((Trifluoromethyl)thio)benzo[d][1,3]selenazol-2-amine]	–
4.74	5.86	Nc1nc2ccc(OC(F)(F)F)cc2[se]1 [Compound VII, 6-(Trifluoromethoxy)benzo[d][1,3]selenazol-2-amine]	–
5.33	6.17	Nc1nc2ccc(S(F)(F)(F)(F)F)cc2s1 [Compound I, 6-(Pentafluorosulfanyl)benzo[d]thiazol-2-amine]	anti-allodynic effect on SNL-induced mechanical allodynia [3]: reversed SNL-induced mechanical allodynia; AUC(0-t) [4]: 7690 ng·h/mL; Cmax [4]: 942 ng/mL; Tmax [4]: 2.3 h; half-life [4]: 7.11 h
4.99	6.13	Nc1nc2ccc(C(F)(F)F)cc2[se]1 [Compound VI, 6-(Trifluoromethyl)benzo[d][1,3]selenazol-2-amine]	–
5.36	6.14	Nc1nc2ccc(S(F)(F)(F)(F)F)cc2[se]1 [Compound V, 6-(Pentafluorosulfanyl)benzo[d][1,3]selenazol-2-amine]	–
